Results on 61 molecules are retold here after patent US10070645B2, “N-cycloalkyl-N-{[2-(1-substitutedcycloalkyl)phenyl]methylene}-(thio)carboxamide derivatives” (BAYER CROPSCIENCE AKTIENGESELLSCHAFT, priority 2013, dated 2018).

The structures appear in SMILES notation.

This data set can be described thus: log P by HPLC on a reversed-phase column (C 18), EEC Directive 79/831 Annex V.A8. The data set is classed as physicochemical. Conditions: for logP: 40° C., linear gradient 10% to 90% acetonitrile. As to the method:
In table 1, the log P values were determined in accordance with EEC Directive 79/831 Annex V.A8 by HPLC (High Performance Liquid Chromatography) on a reversed-phase column (C 18), using the method described below:
Temperature: 40° C.; Mobile phases: 0.1% aqueous formic acid and acetonitrile; linear gradient from 10% acetonitrile to 90% acetonitrile.
Calibration was carried out using unbranched alkan-2-ones (comprising 3 to 16 carbon atoms) with known log P values (determination of the log P values by the retention times using linear interpolation between two successive alkanones). lambda-max-values were determined using UV-spectra from 200 nm to 400 nm and the peak values of the chromatographic signals.

Setting [1] is: HPLC, reversed-phase column (C 18), 0.1% aqueous formic acid and acetonitrile.
[2] abbreviates: reversed-phase HPLC column (C 18), Table 3 (amines of formula II), HPLC C 18, 40° C., 0.1% aqueous formic acid and acetonitrile.
Where [3] appears, read: HPLC on reversed-phase column (C 18), 0.1% aqueous formic acid and acetonitrile.
Where [4] appears, read: reversed-phase HPLC column (C 18), Table 4 (aldehydes of formula IV), HPLC C 18, 40° C., 0.1% aqueous formic acid and acetonitrile.

One may read the logP as a log measure of how a compound divides between an organic and an aqueous phase. A low value points to lower lipophilicity. Under setting [1], `COC1(c2ccc(C)cc2CN(C(=O)c2c(C(F)F)nn(C)c2Cl)C2CC2)CC1` [I.123] gave a logP of 3.74.

The term chromatographic logP denotes a lipophilicity value derived from retention on a column. A low value points to lower lipophilicity. In turn, `CC1(c2ccccc2CNC2CC2)CC1` [II.01, N-[2-(1-methylcyclopropyl)benzyl]cyclopropanamine] registered a chromatographic logP under setting [2] of 1.1.

Regarding `C=Cc1ccc(C2(C)CC2)c(CN(C(=O)c2c(C(F)F)nn(C)c2F)C2CC2)c1` [I.080], the logP under setting [1] turned out to be 4.34. The same measure, in the same setting: under `Cn1nc(C(F)F)c(C(=O)N(Cc2c(C3(C)CC3)ccc(Cl)c2F)C2CC2)c1F` [I.084] stands 4.24. `Cn1nc(C(F)F)c(C(=O)N(Cc2cc(Cl)ccc2C2(C(F)(F)F)CC2)C2CC2)c1Cl` [I.164]: the logP under setting [3] came out at 4.30. `CCCC1(c2ccc(C)cc2CN(C(=O)c2c(C(F)F)nn(C)c2Cl)C2CC2)CC1` [I.131]: the logP under setting [1] was 5.19. Consider `Cc1cc(CNC2CC2)c(C2(C)CC2)cc1C` [II.06, N-[4,5-dimethyl-2-(1-methylcyclopropyl)benzyl]cyclopropanamine], for which the chromatographic logP under setting [2] was 1.68. `Cc1ccc(C2(C)CC2)c(CN(C(=O)c2c(C(F)F)nn(C)c2F)C2CC2)c1Cl` [I.086] showed a logP under setting [1] of 4.51. Same read-out and setting: under `CCC1(c2ccc(C(F)(F)F)cc2CN(C(=O)c2c(C(F)F)nn(C)c2F)C2CC2)CC1` [I.108] stands 4.67. Under setting [1], `Cc1cc(CN(C(=O)c2c(C(F)F)nn(C)c2Cl)C2CC2)c(C2(C)CC2)cc1C` [I.052] showed a logP of 4.53. Same read-out and setting: under `COC1(c2ccccc2CN(C(=O)c2c(C(F)F)nn(C)c2Cl)C2CC2)CC1` [I.117] stands 3.42. As to `N#CC1(c2ccc(Cl)cc2C=O)CC1` [IV.15, 1-(4-chloro-2-formylphenyl)cyclopropanecarbonitrile], the chromatographic logP under setting [4] was 2.35. With `CC(C)CC1(c2cc(Cl)ccc2CN(C(=O)c2c(C(F)F)nn(C)c2Cl)C2CC2)CC1` [I.158], the logP under setting [3] was 5.59.

As to `Cc1ccc(CNC2CC2)c(C2(C)CC2)c1` [II.05, N-[4-methyl-2-(1-methylcyclopropyl)benzyl]cyclopropanamine], the chromatographic logP under setting [2] amounted to 1.43. Turning to `Cn1nc(C(F)F)c(C(=O)N(Cc2ccc3c(c2C2(C)CC2)OCO3)C2CC2)c1F` [I.016], under setting [1], the logP is 3.53. Same read-out and setting: in the case of `Cn1nc(C(F)F)c(C(=O)N(Cc2cc(Br)ccc2C2(C(F)F)CC2)C2CC2)c1F` [I.146] it was 3.76; in that of `Cn1nc(C(F)F)c(C(=O)N(Cc2cc(F)c(F)cc2C2(C)CC2)C2CC2)c1Cl` [I.049], 4.16. `Cc1ccc(C2(C)CC2(Cl)Cl)c(CN(C(=O)c2c(C(F)F)nn(C)c2F)C2CC2)c1Cl` (racemic) [I.178]: the logP under setting [3] came to 4.67.

For `FC(F)C1(c2ccc(Cl)cc2CNC2CC2)CC1` [II.38, N-{5-chloro-2-[1-(difluoromethyl)cyclopropyl]benzyl}cyclopropanamine], the chromatographic logP under setting [2] was determined as 1.16. Under setting [4], `Cc1ccc(C2(C(F)F)CC2)c(C=O)c1` [IV.21, 2-[1-(difluoromethyl)cyclopropyl]-5-methylbenzaldehyde] showed a chromatographic logP of 3.01. With `Cn1nc(C(F)F)c(C(=O)N(Cc2c(C(F)(F)F)cccc2C2(C)CC2)C2CC2)c1F` [I.088], under setting [1], the logP was found to be 4.46. Still for that read-out and setting: under `Cn1nc(C(F)F)c(C(=O)N(Cc2ccc(-c3ccncc3)cc2C2(C)CC2)C2CC2)c1F` [I.045] stands 2.00. In the case of `COc1ccc(C=O)c(C2(C)CC2)c1` [IV.05, 4-methoxy-2-(1-methylcyclopropyl)benzaldehyde], the chromatographic logP under setting [4] turned out to be 2.92. Under setting [1], `Cn1nc(C(F)F)c(C(=O)N(Cc2cc(F)ccc2C2(C(F)F)CC2)C2CC2)c1Cl` [I.152] gave a logP of 3.53. Still for that read-out and setting: in the case of `Cc1ccc(C2(C)CC2)c(CN(C(=S)c2c(C(F)F)nn(C)c2F)C2CC2)c1` [I.073] it was 4.80; in that of `CCC1(c2cccc(F)c2CN(C(=O)c2c(C(F)F)nn(C)c2Cl)C2CC2)CC1` [I.115], 4.34.

For the molecule `Cc1ccc(C2(C3CC3)CC2)c(CN(C(=O)c2c(C(F)F)nn(C)c2F)C2CC2)c1` [I.134], under setting [1], the lipophilicity (logP) worked out at 4.59. On to `C=C(C)c1ccc(Cl)cc1Br` [2-bromo-4-chloro-1-(prop-1-en-2-yl)benzene], for which the chromatographic logP (reversed-phase HPLC column (C 18), preparation examples) was 4.91. `Cn1nc(C(F)F)c(C(=O)N(Cc2cccc(Cl)c2C2(C)CC2)C2CC2)c1F` [I.005]: the logP under setting [1] was 4.30. The same measure, in the same setting: in the case of `COC1(c2ccccc2CN(C(=O)c2c(C(F)F)nn(C)c2F)C2CC2)CC1` [I.116] it was 3.27.

As to `CC1(c2cc(F)c(F)cc2C=O)CC1` [IV.06, 4,5-difluoro-2-(1-methylcyclopropyl)benzaldehyde], the chromatographic logP under setting [4] was 3.44. On the same count and under the same terms, in the case of `CC1(c2cc(F)ccc2C=O)CC1` [IV.03, 4-fluoro-2-(1-methylcyclopropyl)benzaldehyde] it was 3.15. In the case of `FC(F)(F)C1(c2ccccc2CNC2CC2)CC1` [II.45, N-{2-[1-(trifluoromethyl)cyclopropyl]benzyl}cyclopropanamine], the chromatographic logP under setting [2] worked out at 1.25. As for `CC1(c2ccc(F)cc2C=O)CC1` [IV.11, 5-fluoro-2-(1-methylcyclopropyl)benzaldehyde], the chromatographic logP under setting [4] stood at 3.22. Under setting [1], `Cn1nc(C(F)F)c(C(=O)N(Cc2ccc(C3CCOCC3)cc2C2(C)CC2)C2CC2)c1F` [I.047] gave a logP of 3.87.

In turn, `CCOC1(c2ccc(C)cc2CN(C(=O)c2c(C(F)F)nn(C)c2F)C2CC2)CC1` [I.139] came in with a logP under setting [1] of 4.06. Under setting [1], `Cn1nc(C(F)F)c(C(=O)N(Cc2ccccc2C2(C)CC2)C2CC2)c1F` [I.001] showed a logP of 3.85. Still for that read-out and setting: in the case of `Cn1nc(C(F)F)c(C(=O)N(Cc2cc(-c3cn(C)c4ccccc34)ccc2C2(C)CC2)C2CC2)c1F` [I.082] it was 5.00; in that of `COc1cc(CN(C(=O)c2c(C(F)F)nn(C)c2Cl)C2CC2)c(C2(C)CC2)cc1OC` [I.054], 3.46. With `Cc1ccc(C2(CC(C)C)CC2)c(CN(C(=O)c2c(C(F)F)nn(C)c2F)C2CC2)c1` [I.159], the logP under setting [3] was 5.36.

`Cc1ccc(C2(C#C[Si](C)(C)C)CC2)c(CNC2CC2)c1` [II.19, N-(5-methyl-2-{1-[(trimethylsilyl)ethynyl]cyclopropyl}benzyl)cyclopropanamine] had a chromatographic logP (Table 3 (amines of formula II), HPLC C 18, 40° C., 0.1% aqueous formic acid and acetonitrile) of 2.05. In turn, `CCC1(c2ccccc2CN(C(=O)c2c(C(F)F)nn(C)c2Cl)C2CC2)CC1` [I.097] returned a logP under setting [1] of 4.34. Turning to `FC(F)(F)C1(c2ccc(Cl)cc2CNC2CC2)CC1` [II.44, N-{5-chloro-2-[1-(trifluoromethyl)cyclopropyl]benzyl}cyclopropanamine], the chromatographic logP under setting [2] came out at 1.47. Regarding `Cn1nc(C(F)F)c(C(=O)N(Cc2ccc(-c3ccoc3)cc2C2(C)CC2)C2CC2)c1F` [I.039], the logP under setting [1] came out at 4.23. For `CCC1(c2ccc(C(F)(F)F)cc2CN(C(=O)c2c(C(F)F)nn(C)c2Cl)C2CC2)CC1` [I.109], the logP under setting [1] is recorded as 4.85. For `Cc1ccc(C2(C)CC2)c(CNC2(C)CC2)c1` [II.13, 1-methyl-N-[5-methyl-2-(1-methylcyclopropyl)benzyl]cyclopropanamine], the chromatographic logP under setting [2] amounted to 1.45. On the same count and under the same terms, in the case of `CCC1(c2cc(Cl)ccc2CNC2CC2)CC1` [II.25, N-[4-chloro-2-(1-ethylcyclopropyl)benzyl]cyclopropanamine] it was 1.65. `Cn1nc(C(F)F)c(C(=O)N(Cc2cc(Br)ccc2C2(C(F)F)CC2)C2CC2)c1Cl` [I.147]: the logP under setting [1] is given as 3.92. `Cn1nc(C(F)F)c(C(=O)N(Cc2cc(F)ccc2C2(C)CC2(Cl)Cl)C2CC2)c1Cl` (racemic) [I.171]: the logP under setting [3] is 4.21.

The molecule `Cn1nc(C(F)F)c(C(=O)N(Cc2ccc(-c3ccc(F)c(F)c3)cc2C2(C)CC2)C2CC2)c1F` [I.036] yielded a logP under setting [1] of 5.03. `Cc1ccc(C2(C(C)C)CC2)c(CN(C(=O)c2c(C(F)F)nn(C)c2Cl)C2CC2)c1` [I.136] showed a logP under setting [1] of 5.11. As for `Cn1nc(C(F)F)c(C(=O)N(Cc2cc(F)c(F)cc2C2(C)CC2)C2CC2)c1F` [I.048], the logP under setting [1] is given as 4.01. Molecule `C#CC1(c2ccc(C)cc2CN(C(=O)c2c(C(F)F)nn(C)c2F)C2CC2)CC1` [I.092] returned a logP under setting [1] of 3.68. Molecule `Fc1ccc(C2(C(F)(F)F)CC2)c(CNC2CC2)c1` [II.46, N-{5-fluoro-2-[1-(trifluoromethyl)cyclopropyl]benzyl}cyclopropanamine] gave a chromatographic logP under setting [2] of 1.32.

The molecule `Cn1nc(C(F)F)c(C(=O)N(Cc2cc(Br)ccc2C2(C)CC2)C2CC2)c1Cl` [I.057] returned a logP under setting [1] of 4.56. `FC(F)C1(c2ccc(Br)cc2CNC2CC2)CC1` [II.37, N-{5-bromo-2-[1-(difluoromethyl)cyclopropyl]benzyl}cyclopropanamine] came in with a chromatographic logP under setting [2] of 1.3. Under setting [4], `Cc1cc(C=O)c(C2(C)CC2)cc1C` [IV.07, 4,5-dimethyl-2-(1-methylcyclopropyl)benzaldehyde] showed a chromatographic logP of 3.85. Consider `CCC1(c2cc(C)ccc2CNC2CC2)CC1` [II.26, N-[2-(1-ethylcyclopropyl)-4-methylbenzyl]cyclopropanamine], for which the chromatographic logP under setting [2] came to 1.47. On to `Cn1nc(C(F)F)c(C(=O)N(Cc2ccc(-c3ccc4ncccc4c3)cc2C2(C)CC2)C2CC2)c1F` [I.046], for which the logP under setting [1] came out at 3.09. Take `CCCC1(c2cc(Cl)ccc2C=O)CC1` [IV.19, 4-chloro-2-(1-propylcyclopropyl)benzaldehyde]: the chromatographic logP under setting [4] turned out to be 4.69. Under setting [1], `COC1(c2ccc(Cl)cc2CN(C(=O)c2c(C(F)F)nn(C)c2Cl)C2CC2)CC1` [I.119] displayed a lipophilicity (logP) of 3.87.
